pIC50: −log10 of the molar value. Counter-ions that a name gives are not always drawn. Like-named read-outs stand apart in the source and are kept apart here.

For one data set, the target named is Na^+,K^+-ATPase (Canis lupus familiaris, UniProt P50997). The experiment in a line: Dog kidney Na+,K+-ATPase inhibition (hydrolysis of 32P-ATP). In kind it is biochemical.
Data set [1] relates to spontaneous hypertensive rats of the Milan (MHS). The data set can be described thus: Systolic blood pressure fall in spontaneous hypertensive rats (MHS), tail-cuff. In kind it is in vivo, rat. Particulars: 10 μg/kg/os daily, five weeks, vs vehicle control.
Another data set deals with anesthetized guinea-pig. The experiment in a line: Inotropic effect and lethal dose, slow intravenous infusion in anesthetized guinea-pig. Particulars: for % decrease from Emax after 20 min from the end of the infusion: 20 minutes after the end of the infusion; for Maximum dose infused: in the survived animals; for Dead/treated / ED80 (dose increasing +dP/dTmax by 80%) / EDmax (dose inducing maximum positive inotropic effect) / Emax % increase in +dP/dTmax: slow intravenous infusion over 90 minutes; for safety ratio compared with reference cardiotonics / duration of the inotropic effect: in words; for duration of the inotropic effect: after stopping the infusion.

[2] abbreviates: Na^+,K^+-ATPase Inhibition IC50.
Setting [3] is: dog kidney enzyme, read-out: Na^+,K^+-ATPase Inhibition IC50.

Broadly, the pIC50 is −log10 of the IC50, conventionally taken in molar units. In turn, `CC12CCC3C(CCNC4CC(=NOC5CCNC5)CCC43C)C1CCC2=O` [I-am, (E,Z) 3-[3-(R)-Pyrrolidinyl]oxyimino-6-aza-7a-homoandrostane-17-one dihydrochloride] showed a pIC50 on Na^+,K^+-ATPase (setting [2]) of 5.02.
`CNCCCON=C1CCC2(C)C(CC(=O)OC3C4CCC(=O)C4(C)CCC32)C1` (stereo not shown) [I-bj, (E,Z) 3-(3-N-Methylaminopropoxyimino)-7a-oxa-7a-homoandrostane-7,17-dione hydrochloride]: the negative-log IC50 (pIC50) against Na^+,K^+-ATPase (setting [2]) is 5.66.
`CC12CCC3C(NC(=O)CC4CC(=NOC5CCNC5)CCC43C)C1CCC2=O` [I-ax, (E,Z) 3-[3-(R)-Pyrrolidinyl]oxyimino-7a-aza-7a-homoandrostane-7,17-dione hydrochloride] had a pIC50 on Na^+,K^+-ATPase (setting [2]) of 5.32.
Take `CC12CCC3C(COC(=O)C4CC(=NOC5CCNC5)CCC43C)C1CCC2=O` [I-bg, (E,Z) 3-[3-(R)-Pyrrolidinyl]oxyimino-7-oxa-7a-homoandrostane-6,17-dione hydrochloride]: at Na^+,K^+-ATPase (setting [2]), the negative-log IC50 (pIC50) was 6.09.
The molecule `CC12CCC3C(CC(=O)NC4CC(=NOC5CCNC5)CCC43C)C1CCC2=O` [I-ad, (E,Z) 3-[3-(R)-Pyrrolidinyl]oxyimino-6-aza-7a-homoandrostane-7,17-dione fumarate] showed a pIC50 at Na^+,K^+-ATPase (setting [2]) of 6.02.
`CC12CCC3C(CCCC4CC(=NOCCN)CCC43C)C1CCC2=O` (stereo not shown) [I-bo, (E,Z) 3-(2-Aminoethoxyimino)-B-homoandrostane-17-one hydrochloride]: the pIC50 against Na^+,K^+-ATPase (setting [2]) is 7.15.
Take `CNCCCON=C1CCC2(C)C(C1)NC(=O)CC1C3CCC(=O)C3(C)CCC12` (stereo not shown) [I-ac, (E,Z) 3-(3-N-Methylaminopropoxyimino)-6-aza-7a-homoandrostane-7,17-dione fumarate]: the pIC50 at Na^+,K^+-ATPase (setting [3]) was 4.72. In data set [1], the SBP - % is 4.2% and the “SBP - mm Hg (decrease in systolic blood pressure)” value was 7.2 +/− 0.7 mm Hg.
Turning to `CC12CCC3C(NCCC4CC(=NOCCN)CCC43C)C1CCC2=O` (stereo not shown) [I-ay, (E,Z) 3-(2-Aminoethoxyimino)-7a-aza-7a-homoandrostane-17-one difumarate], the pIC50 on Na^+,K^+-ATPase (setting [3]) is 6.40.
Regarding `CC12CCC3C(CCN(C=O)C4CC(=NOCCN)CCC34C)C1CCC2=O` (stereo not shown) [I-an, (E,Z) 3-(2-Aminoethoxyimino)-6-aza-6-formyl-7a-homoandrostane-17-one hydrochloride], the pIC50 on Na^+,K^+-ATPase (setting [3]) is 4.64.
For the molecule `CNCCCON=C1CCC2(C)C(C1)C(=O)OCC1C3CCC(=O)C3(C)CCC12` (stereo not shown) [I-bf, (E,Z)-3-(3-N-Methylaminopropoxyimino)-7-oxa-7a-homoandrostane-6,17-dione hydrochloride], the pIC50 against Na^+,K^+-ATPase (setting [2]) is 5.72.
At Na^+,K^+-ATPase (setting [2]), `CC12CCC3C(COC(=O)C4CC(=NOCCN)CCC43C)C1CCC2=O` (stereo not shown) [I-be, (E,Z) 3-(2-Aminoethoxyimino)-7-oxa-7a-homoandrostane-6,17-dione hydrochloride] showed a pIC50 of 5.80.
Turning to `CNCCCON=C1CCC2(C)C(CCNC3C4CCC(=O)C4(C)CCC32)C1` (stereo not shown) [I-az, (E,Z) 3-(3-N-Methylaminopropoxyimino)-7a-aza-7a-homoandrostane-17-one difumarate], the pIC50 on Na^+,K^+-ATPase (setting [3]) is 5.74.
In the case of `CC12CCC3C(CCCC4CC(=NOC5CCNC5)CCC43C)C1CCC2=O` [I-bp, (E,Z)-3-[3-(R)-Pyrrolidinyl]oxyimino-B-homoandrostane-17-one hydrochloride], the pIC50 on Na^+,K^+-ATPase (setting [2]) was 7.40.
With `CC12CCC3C(CCNC4CC(=NOCCN)CCC43C)C1CCC2=O` (stereo not shown) [I-ak, (E,Z)—3-(2-Aminoethoxyimino)-6-aza-7a-homoandrostane-17-one dihydrochloride], on Na^+,K^+-ATPase (setting [3]), the pIC50 was 4.54.
`CNCCCON=C1CCC2(C)C(C1)OC(=O)CC1C3CCC(=O)C3(C)CCC12` (stereo not shown) [I-bq, (E,Z)-3-(3-N-Methylaminopropoxyimino)-6-oxa-7a-homoandrostane-7,17-dione fumarate] had a pIC50 at Na^+,K^+-ATPase (setting [2]) of 5.43.
For the molecule `CC12CCC3C(CCOC4CC(=NOCCN)CCC43C)C1CCC2=O` (stereo not shown) [I-bs, (E,Z)-3-(2-Aminoethoxyimino)-6-oxa-7a-homoandrostane-17-one hydrochloride], the pIC50 on Na^+,K^+-ATPase (setting [3]) was 6.89.
For `CON=C1CC2C3CCC(=O)C3(C)CCC2C2(C)CCC(=NOCCN)CC2N1` (stereo not shown) [I-at, (E,Z) 3-(2-Aminoethoxyimino)-6-aza-7a-homo-7-(Z)-methoxyimino-androstane-17-one hydrochloride], on Na^+,K^+-ATPase (setting [3]), the pIC50 was 4.32.
As to `CC12CCC3C(C(=O)NC4CC(=NOC5CCNC5)CCC43C)C1CCC2=O` [I-bv, (E,Z) 3-[3-(R)-Pyrrolidinyl]oxyimino-6-azaandrostane-7,17-dione fumarate], on Na^+,K^+-ATPase (setting [2]), the pIC50 was 5.85.
Turning to `CC12CCC3C(C(=O)NC4CC(=NOCCN)CCC43C)C1CCC2=O` (stereo not shown) [I-bu, (E,Z) 3-(2-Aminoethoxyimino)-6-azaandrostane-7,17-dione hydrochloride], at Na^+,K^+-ATPase (setting [3]), the pIC50 is 5.96.
On Na^+,K^+-ATPase (setting [2]), `CC12CCC3C(CC(=O)NC4CC(=NOCCN)CCC43C)C1CCC2=O` (stereo not shown) [I-bn, (Z) 3-(2-Aminoethoxyimino)-6-aza-7a-homoandrostane-7,17-dione fumarate] gave a pIC50 of 4.21.
On to `C[C@H]1O[C@@H](O[C@H]2[C@@H](O)C[C@H](O[C@H]3[C@@H](O)C[C@H](O[C@H]4CC[C@@]5(C)[C@H](CC[C@@H]6[C@@H]5C[C@@H](O)[C@]5(C)[C@@H](C7=CC(=O)OC7)CC[C@]65O)C4)O[C@@H]3C)O[C@@H]2C)C[C@H](O)[C@@H]1O` [digoxin, reference compound], for which, in the data set on anesthetized guinea-pig, the “% decrease from Emax after 20 min from the end of the infusion” value (from here on “% decrease from Emax after 20 min”) is recorded as 100%, the Maximum dose infused worked out at 1.16 µmol/kg, the Dead/treated is listed as 10/10 and the “ED80 (dose increasing +dP/dTmax by 80%)” value was 0.29 µmol/kg. In the data set on anesthetized guinea-pig, the “EDmax (dose inducing maximum positive inotropic effect)” value (“EDmax” below) stood at 0.65 µmol/kg and the “Emax % increase in +dP/dTmax” value worked out at 158%. In addition, in the data set with anesthetized guinea-pig (calculated in the died animals), the “Lethal dose/ED80” value is 4.0.
`CON=C1CC2C3CCC(=O)C3(C)CCC2C2(C)CCC(=NOC3CCNC3)CC2N1` [I-au, 3-(E,Z)-[3-(R)-Pyrrolidinyl]oxyimino-6-aza-7a-homo-7-(Z)-methoxyimino-androstane-17-one hydrochloride] gave a pIC50 on Na^+,K^+-ATPase (setting [2]) of 4.17.
For `CC12CCC3C(NC(=O)CC4CC(=NOCCN)CCC43C)C1CCC2=O` (stereo not shown) [I-av, (E,Z) 3-(2-Aminoethoxyimino)-7a-aza-7a-homoandrostane-7,17-dione hydrochloride], the pIC50 on Na^+,K^+-ATPase (setting [3]) was 4.57.
With `CC12CCC3C(CC(=S)NC4CC(=NOCCN)CCC43C)C1CCC2=O` (stereo not shown) [I-aj, (E,Z) 3-(2-Aminoethoxyimino)-6-aza-7a-homo-7-thioxoandrostane-17-one hydrochloride], at Na^+,K^+-ATPase (setting [3]), the pIC50 was 5.19.
On the same count and under the same terms, then `CC12CCC3C(OC(=O)CC4CC(=NOCCN)CCC43C)C1CCC2=O` (stereo not shown) [I-bi, (E,Z) 3-(2-Aminoethoxyimino)-7a-oxa-7a-homoandrostane-7,17-dione hydrochloride], with 6.07; and `CC12CCC3C(CC(=O)OC4CC(=NOCCN)CCC43C)C1CCC2=O` (stereo not shown) [I-bh, (E,Z) 3-(2-Aminoethoxyimino)-6-oxa-7a-homoandrostane-7,17-dione fumarate], with 6.62.
Consider `CC12CCC3C(OCCC4CC(=NOCCN)CCC43C)C1CCC2=O` (stereo not shown) [I-bt, (E,Z)-3-(2-Aminoethoxyimino)-7a-oxa-7a-homoandrostane-17-one hydrochloride], for which, on Na^+,K^+-ATPase (setting [3]), the pIC50 is 6.80.
As to `CC12CCC3C(C1CCC2=O)N(C=O)CCC1CC(=NOC2CCNC2)CCC13C` [I-bd, (E,Z) 3-[3-(R)-Pyrrolidinyl]oxyimino-7a-aza-7a-formyl-7a-homoandrostane-17-one hydrochloride], the pIC50 at Na^+,K^+-ATPase (setting [3]) was 4.24.
For `CC12CCC3C(OC(=O)CC4CC(=NOC5CCNC5)CCC43C)C1CCC2=O` [I-bk, (E,Z) 3-[3-(R)-Pyrrolidinyl]oxyimino-7a-oxa-7a-homoandrostane-7,17-dione hydrochloride], the pIC50 on Na^+,K^+-ATPase (setting [2]) was 6.44. In the data set with anesthetized guinea-pig, the “% decrease from Emax after 20 min” value was determined as 50%; the Maximum dose infused turned out to be 25.3 µmol/kg; the “safety ratio compared with reference cardiotonics” value was “higher safety ratios than those displayed by digitoxin and compd 22b”; the “duration of the inotropic effect” value was “prolonged action”. In the data set on anesthetized guinea-pig, the Dead/treated was 0/3, the “ED80 (dose increasing +dP/dTmax by 80%)” value was determined as 2.11 µmol/kg, the “EDmax” value worked out at 23.9 µmol/kg and the “Emax % increase in +dP/dTmax” value was 254%.
As for `CC12CCC3C(CC(=O)OC4CC(=NOC5CCNC5)CCC43C)C1CCC2=O` [I-br, (E,Z) 3-[3-(R)-Pyrrolidinyl]oxyimino-6-oxa-7a-homoandrostane-7,17-dione fumarate], the pIC50 against Na^+,K^+-ATPase (setting [2]) was 5.89.
`CC12CCC3C(NCCC4CC(=NOC5CCNC5)CCC43C)C1CCC2=O` [I-ba, (E,Z) 3-[3-(R)-Pyrrolidinyl]oxyimino-7a-aza-7a-homoandrostane-17-one Difumarate]: the negative logarithm of the IC50 (pIC50) at Na^+,K^+-ATPase (setting [2]) was 6.85. Further, in the data set on anesthetized guinea-pig, the “% decrease from Emax after 20 min” value is reported as 55%; the Maximum dose infused was 50.0 µmol/kg; the “safety ratio compared with reference cardiotonics” value was “higher safety ratios than those displayed by digitoxin and compd 22b”; the “duration of the inotropic effect” value is “prolonged action”. In addition, in the data set on anesthetized guinea-pig, the Dead/treated is recorded as 0/3, the “ED80 (dose increasing +dP/dTmax by 80%)” value amounted to 1.68 µmol/kg, the “EDmax” value was 10.1 µmol/kg and the “Emax % increase in +dP/dTmax” value came to 218%.
Consider `CC12CCC3C(CC(=O)NC4CC(=NOCCN)CCC43C)C1CCC2=O` (stereo not shown) [I-bm, (E) 3-(2-Aminoethoxyimino)-6-aza-7a-homoandrostane-7,17-dione fumarate], for which the pIC50 against Na^+,K^+-ATPase (setting [2]) was 4.60.
`CNCCCON=C1CCC2(C)C(CC(=O)NC3C4CCC(=O)C4(C)CCC32)C1` (stereo not shown) [I-aw, (E,Z) 3-(3-N-Methylaminopropoxyimino)-7a-aza-7a-homoandrostane-7,17-dione hydrochloride]: the pIC50 at Na^+,K^+-ATPase (setting [3]) is 5.00.
On the same count and under the same terms, in the case of `CC12CCC3C(C(=O)OC4CC(=NOCCN)CCC43C)C1CCC2=O` (stereo not drawn) [I-bl, (E,Z) 3-(2-Aminoethoxyimino)-6-oxa-5β-androstane-7,17-dione hydrochloride] it was 5.60.

Values taken from patent US8022203B2, “Amino derivatives of beta-homoandrostanes and beta-heteroandrostanes” (Sigma-Tau Industrie Farmaceutiche Riunite S.p.A., priority 2006, dated 2011).
